Measurements as given in US8124408B2, “Preparation of inactivated artificial antigen presenting cells and their use in cell therapies” (Janssen Pharmaceutica N.V., priority 2006, dated 2012).
Read-outs that look alike come from different tables or passages of the source.

Tests used:
CD8^+ T cells [1] = assay: K^b/OVA8 tetramer staining of mouse CD8+ T cells activated with xAPCs; type: cell-based, mice
Method: Lanes 1 and 2, percentage of stained CD8^+ T cells isolated form and activated from wild type mice (B6), as described in FIG. 8A (performed as a positive control).
IL-2 was added on day three and day five of the xAPC/naïve CD8^+ T cell coculture. The coculture was split on day seven of the coculture period, and on day nine the cultured CD8^+ T cells were collected. An OVA8/MHC tetramer (Beckman Coulter) preparation was prepared and 10 μl was mixed with 1×10^6 CD8^+ T cells/100 μl of FACS buffer (0.5% BSA, 0.2%, NaN3 in PBS). The K^b/OVA8 tetramers consisted of four MHC molecules bound to the OVA8 peptide, which was conjugated to a fluorescent protein. The mixture was incubated at room temperature for 30 minutes and washed in PBS, and then spun down at 400×g for 5 minutes. The cell pellet was resuspended in FACS buffer (500 μl) and immediately read on a FACScan flow cytometry machine at an excitation wavelength of 486 nm-580 nm and an emission wavelength of 586 nm-590 nm.

[2] = tested on: xenogenic HLA A2.1, B7-1, B7-2, and β2m transcripts; assay: RT-PCR of xenogenic nucleic acid transcription in xAPC/clone D cocultures; type: cell-based, Drosophila; details: UVADEX 5 μg/ml and UVA 5, 15 or 30 minutes, 10 weeks coculture with clone D
From the text: RT-PCR products were then visualized by agarose gel electrophoresis.
It was possible that xenogenic nucleic acid introduced into the xAPCs might have remained active, even though the xAPCs themselves were rendered nonproliferative. […] Each culture of xAPCs was washed and cocultured for 10 weeks with an indicator Drosophila cell line designated herein as clone D, which is a cell line that has not been modified by introduction of xenogenic nucleic acid. Reverse transcriptase (RT)-PCR reactions using primers specific for xenogenic HLA A2.1, B7-1, B7-2, and β2m transcripts were then performed on extracts of the cocultures.

[3] = tested on: lytic virus associated with Drosophila xAPCs; assay: infectivity of xAPC viral stock on Drosophila clone D indicator cells; type: cell-based
Method: Thus, a xAPC culture containing approximately 6×10^8 Drosophila xAPCs (clone B) was collected, suspended in 0.6 ml Schneider's media on ice, and sonicated for 30 seconds. Cell debris was pelleted by centrifugation, and the supernatant collected and layered onto a cesium chloride (CsCl) cushion, which was at a density of 1.2 (20% w/w CsCl), at a ratio of three volumes of supernatant to one volume of CsCl. The supernatant-loaded CsCl cushion was then ultracentrifuged at 25,000 rpm for four hours. Viral fractions were collected and the fraction densities measured. Three milliliter fractions at a density of 1.0 to 1.2 were pooled and dialyzed against phosphate-buffered saline (PBS), generating a viral stock, and the viral stock stored at −80° C. until use. […] Independent cultures (1×10^6 cells/culture) of the Drosophila clone D indicator cell line were incubated at 28° C. with either the treated and untreated viral aliquots. After a three-day incubation period, the indicator cell cultures were harvested and stained with propidium iodide (PI) (1 μg/1×10^6 cells) at 4° C. for 10 minutes. The live and lytic cells were analyzed by FACS, with the results depicted in FIGS. 4A-4C.
After a three-day incubation period, the percentage of viable cells was quantified in each indicator cell line culture. […]

HLA-A2, B7-1, or ICAM-1 = details: UVADEX 5 μg/ml, UVA 0, 5 or 15 minutes
Method: (§1) FACS analysis was carried out by independently using antibodies specific for human HLA, human B7.1, and ICAM-1, as indicated.
The xAPC cultures were washed and stained with monoclonal antibodies specific for HLA-A2, B7-1, or ICAM-1 and analyzed by FACS.

Drosophila clone B xAPCs = assay: xAPC proliferation, viable cell count by trypan blue staining; type: cell-based
From the text: (§2) Viable (i.e., live) xAPCs were counted on day 1, day 5, day 9, day 14, and day 16 post-treatment by trypan blue staining of each culture.
as §2

CD8^+ T cells [4] = tested on: CD8^+ T cells
From the text: Human rIL-2 (20 units/ml) and rIL-7 (30 units/ml) were each added to the culture at day 5. The CD8^+ T cells were restimulated twice on the seventh and fifteenth days of the culture period with non-CD8 adherent cells in PBMC from the same donor in the presence of the MART-1 peptides. The expanded CD8^+ T cells were then stained with MART-1 tetramers (Beckman Coulter) consisting of four MHC molecules bound to the MART-1 peptide, which was conjugated to a fluorescent protein, and analyzed by FACS.

baculovirus [5] = assay: baculovirus titer by rapid microtiter assay after UVADEX/UVA treatment of infected Sf9 cells; type: cell-based; details: UVADEX 5 μg/ml
Method: The treated cells were then cultured at 28° C. for 4 days. Cultured supernatant was collected and used to infect fresh, uninfected cultures of Sf9 cells seeded in 96-well plates. Baculovirus present in these Sf9 cultures was detected by a rapid microtiter assay (Invitrogen) using a gp64-specific antibody, and baculovirus titers were calculated.
In a similar experiment, Sf9 cells were infected with the titrated doses of baculovirus as described above. […] The treated cells were then cultured at 28° C. for four days. The culture supernatant was collected and used to infect a new culture of Sf9 cells seeded in 96-well plates. Baculovirus in the Sf9 cells was detected by a rapid microtiter assay (Invitrogen). The culture plates were overlaid with methylcellulose and cultured for 48 hrs. Baculovirus was detected by immunoassay with a gp64-specific antibody (Invitrogen). The number of foci in each well was counted and the virus titer (pfu/ml) of the supernatant of the infected cells was calculated according to the manufacturer's instructions.

HLA-A2, B7-1, and ICAM-1 = assay: FACS of exogenous molecules in xAPC clone B/clone D cocultures; type: cell-based, Drosophila; details: UVADEX/UVA 5 μg/ml, 10 weeks coculture with clone D
Method: as §1
For comparison, γ-radiation-treated xAPC clone B/clone D cocultures and untreated xAPC clone B/clone D cocultures were analyzed by FACS as well.
The cells from each culture were washed and then and cocultured with clone D indicator cells for 10 weeks. The cocultured cells were collected and aliquoted, and each aliquot was stained with one of HLA-A2, B7-1, and ICAM-1 fluorescein isothiocyanate (FITC)-conjugated monoclonal antibodies (mAbs), respectively. The stained cocultures were then analyzed by FACS.

baculovirus [6] = assay: baculovirus/Sf9 infectivity assay; type: cell-based; details: for Virus Titer (10^−4) / Virus Titer (10^−5): UVADEX 5 μg/ml, virus added, Sf9 cells, triplicate
Method: A baculovirus/Sf9 infectivity assay was used to determine if psoralen-derivative/UVA treatment was sufficient to inactivate viruses associated with virus-infected insect cells. Sf9 insect cells were infected with BacPAK6 viral stock and incubated at room temperature for one hour (BacPAK6 baculovirus rapid titer kit; BD Biosciences Clontech). […] Five days after irradiation, culture supernatants were collected. From these, new viral stocks were prepared via serial dilutions of 10^−3, 10^−4 and 10^−5, respectively. These serially diluted stock dilutions were each used to infect a second set of fresh (i.e., not previously infected) Sf9 cell cultures. This second set of cultures was overlaid with methylcellulose and grown for approximately 48 hours. Culture supernatants of this second set of cultures were discarded and a mouse monoclonal anti-gp64 (baculovirus-specific) protein antibody (Invitrogen) was added. After an inbubation period and several washes to remove unbound anti-gp64 antibody, a goat-anti-mouse polyclonal antibody conjugated to horseradish peroxidase (i.e., secondary antibody obtained from Invitrogen) was added. Unbound secondary antibody was removed with several washes, and […] was added. The number of stained foci was counted and the virus titer (pfu/ml) was calculated according to the manufacturer's instructions.

CD8^+ T cells [7] = assay: APC function of glutaraldehyde-fixed Drosophila xAPCs; type: cell-based; details: xAPCs fixed with 0.3% glutaraldehyde
From the text: Inactivation of Drosophila cells was initially attempted with glutaraldehyde fixation in the absence of preservative.

[8] = UVA irradiation time 10 minutes

COc1c2occc2cc2ccc(=O)oc12 [UVADEX, 9-methoxy-7H-furo[3,2-g]-1-benzopyran-7-one]
percentage of CD8^+ T cells stained with K^b/OVA tetramer versus non-treated xAPCs (CD8^+ T cells [1]; MyD88 knock-out (MyD88^−/−) mice): no increase | percentage of CD8^+ T cells stained with K^b/OVA tetramer versus non-treated xAPCs (CD8^+ T cells [1]; wild type (C57BL/6 (B6)) mice): higher percentage | xenogenic HLA A2.1, B7-1, B7-2, and β2m transcripts [2]: absence of detectable levels | infection and lysis of indicator cell culture by serial dilutions of viral stock ([3]; 5 μg/ml for 10 minutes, dilutions 10^−1 to 10^−9, three-day incubation): almost completely incapable of infecting and lysing the indicator cell culture at all but the lowest dilution tested | indicator cell infection or lysis by microscopy ([3]; viral stock treated 5 μg/ml for 10 minutes, three-day incubation): failed to result in any observable indicator cell infection or lysis | surface expression level of the three exogenous molecules (HLA-A2, B7-1, or ICAM-1): essentially the same | inactivation of Drosophila cells (Drosophila clone B xAPCs; 8-MOPs plus 1 Joule/cm^2 for 2 minutes): sufficient to inactivate Drosophila cells | cytotoxicity at 5 µg/mL (Drosophila clone B xAPCs; Drosophila melanogaster, light or radiation study, read-out: inhibition of viability of xAPC cultures): ~50% | viable xAPCs detected (Drosophila clone B xAPCs; two weeks after UVADEX/UVA treatment, any treated culture): almost no viable cells were detected | Percent p/MHC tetramers of CD8^+ T cells (% Tetr + CD8^+) (CD8^+ T cells [4]; Donor 1, MART-1 tetramer): 0.95% | Percent p/MHC tetramers of CD8^+ T cells (% Tetr + CD8^+) (CD8^+ T cells [4]; Donor 2, MART-1 tetramer): 11.55% | Percent p/MHC tetramers of CD8^+ T cells (% Tetr + CD8^+) (CD8^+ T cells [4]; Donor 3, MART-1 tetramer): 15.07% | Percent p/MHC tetramers of CD8^+ T cells (% Tetr + CD8^+) (CD8^+ T cells [4]; Donor 4, MART-1 tetramer): 43.33% | baculovirus titer of culture supernatant (baculovirus [5]; ten-minute UVA): no detectible baculovirus titer | baculovirus titer of culture supernatant (baculovirus [5]; twenty-minute UVA): no detectible baculovirus titer | expression of HLA-A2, B7-1, and ICAM-1 in cocultures (HLA-A2, B7-1, and ICAM-1): undetectable levels | infectious virus in viral stock obtained in the supernatant (baculovirus [6]; 5 mcg/ml 8-MOPs, UVA 320-380 nm for 5 minutes, infected Sf9 cells): does not contain infectious virus | Virus Titer (10^−4) (baculovirus [6]; UVA irradiation time 5 minutes): 0 | Virus Titer (10^−5) (baculovirus [6]; UVA irradiation time 5 minutes): 0 | Virus Titer (10^−4) (baculovirus [6]; [8]): 0 | Virus Titer (10^−5) (baculovirus [6]; [8]): 0

O=CCCCC=O [glutaraldehyde]
CD8^+ T cell activation, less than unfixed cells (CD8^+ T cells [7]): 2 fold | antigen-specific proliferation of CD8^+ T cells, less than unfixed cells (CD8^+ T cells [7]): 2.5- to 6 fold | generation of CD8^+ T cells capable of lysing target cells (CD8^+ T cells [7]): to a lesser degree than unfixed cells
